Drawing on the Deep4Chem optical property database, this text covers emission maximum for 20 molecules.

Values joined by “and” are separate entries in the source; they are usually repeats but may differ in a detail not shown here. Identical values can stand only once.

This data set can be described thus: solvent given as SMILES.

In the case of `CC(=O)OC[C@@H]1O[C@H](N2C=CC3=Nc4nc(C)[n+](C)cc4CN3C2=O)[C@@H](O)[C@H]1O`, the emission maximum is listed as 416 nm (in CC#N), 418 nm (in CCO) and 414 nm (in O).
In the case of `c1cc2ccc1CCCc1ccc(c3nsnc13)CCC2`, the emission maximum is, setting by setting: (in C1CCCCC1) 468 nm; (in CC#N) 497 nm; (in ClC(Cl)Cl) 496 nm.
`CCN(CC)c1ccc2cc(-c3ccc(-c4ccc(-c5cc6ccc(N(CC)CC)cc6oc5=O)cc4)cc3)c(=O)oc2c1`: where the note is “in ClCCl”, the emission maximum was found to be 484 nm.
For `COc1ccc(/C=C/C2=C3CCc4ccccc4C3=[O+][B-](F)(F)O2)cc1`, where the note is “in ClCCl”, the emission maximum turned out to be 515 nm.
`CCCN1c2ccccc2Sc2cc(/C=C\c3cc(=O)oc4cc(C)ccc34)ccc21` displayed an emission maximum (in ClC(Cl)Cl) of 631 nm.
Where the note is “in c1ccccc1”, `Nc1ccc2nc(-c3ccccc3)c(=O)oc2c1` registered an emission maximum of 480 nm.
Consider `c1ccc(-c2ccc(-c3ccccc3)cc2)cc1`, for which the emission maximum was found to be 340 nm (in C1CCOC1), 342 nm (in C1COCCO1) and 375 nm (in CCO).
Turning to `CCN1c2ccc(/C=N/Nc3ccccn3)cc2Sc2cc(-c3ccccc3)ccc21`, the emission maximum (in C1CCOC1) is 487 nm, the emission maximum (in CS(C)=O) was 503 nm, the emission maximum (in Cc1ccccc1) came to 485 nm and the emission maximum (in ClCCl) is reported as 497 nm.
Take `COCCC1=Cc2nc1ccc1[nH]c(cc1CCOC)c1nc(c(N)cc3[nH]c2cc3CCOC)C(CCOC)=C1`: the emission maximum (in Cc1ccccc1) came out at 748 nm.
For `CCCCCCN1C(=O)c2cccc3c(-c4scc5c4OCCO5)ccc(c23)C1=O`, the emission maximum (in ClC(Cl)Cl) is 484 nm.
For the molecule `Oc1ccccc1-c1nc2c3cccnc3c3ncccc3c2n1-c1ccccc1`, under “in Cc1ccccc1”, the emission maximum amounted to 379 nm.
As for `CCN(CC)c1ccc2c(C)cc(=O)oc2c1`, the emission maximum is, setting by setting: (in C1CCCCC1) 395 nm; (in CC#N) 430 nm; (in CCCCCCCCO) 443 nm; (in CCCCCCO) 444 nm; (in CCCCO) 447 nm; (in CCCO) 452 nm. The emission maximum was 454 nm and 451 nm (in CCO); 416 nm (in CCOC(C)=O); 462 nm (in CO); 470 nm (in O); 463 nm (in OCC(O)CO).
Consider `COc1cc2c(cc1F)c(=O)c1cc(F)c(OC)cc1n2-c1ccccc1`, for which the emission maximum (in CCO) amounted to 424 nm.
`COc1cc(/C=C/c2cc(OC)c(-c3nc(-c4ccccc4)c(-c4ccccc4)[nH]3)cc2OC)c(OC)cc1/C=C/c1cc(OC)c(-c2nc(-c3ccccc3)c(-c3ccccc3)[nH]2)cc1OC`: the emission maximum runs as follows: (in C1CCOC1) 510 nm; (in CC#N) 515 nm; (in CN(C)C=O) 512 nm; (in Cc1ccccc1) 502 nm.
On to `COc1cccc(OC)c1-c1c2ccc(=[N+]3CCNCC3)cc-2oc2cc(N3CCNCC3)ccc12`, for which the emission maximum by setting is: (in CCO) 582 nm; (in O) 568 nm.
Consider `CCCCN(CCCC)c1ccc2c#cc3cc4c#cc5ccc(N(CCCC)CCCC)cc5c#cc#cc5cc(C(F)(F)F)ccc5c#cc4cc3c#cc3ccc(C(F)(F)F)cc3c#cc#cc2c1`, for which the emission maximum runs as follows: (in ClCCl) 544 nm; (in c1ccccc1) 501 nm.
The molecule `CC1(C)c2ccccc2N(c2ccc(-c3nc4cc(C#N)c(C#N)cc4nc3-c3ccc(N4c5ccccc5C(C)(C)c5ccccc54)cc3)cc2)c2ccccc21` displayed an emission maximum (in Cc1ccccc1) of 620 nm.
`CCCCOC(=O)c1cc(Cl)c2c3c(Cl)cc4c5c(cc(Cl)c(c6c(Oc7ccc(C(=O)OC)cc7)cc(C(=O)OCCCC)c1c26)c53)C(=O)N(c1c(C(C)C)cccc1C(C)C)C4=O`: where the note is “in Cc1ccccc1”, the emission maximum is reported as 560 nm.
`CCC1=C(C)C(=O)n2c1cc1c(C)c(CC)c(C)n1c2=O`: the emission maximum (in CO) is recorded as 540 nm, the emission maximum (in CS(C)=O) turned out to be 510 nm, the emission maximum (in ClC(Cl)Cl) amounted to 500 nm and the emission maximum (in c1ccccc1) was determined as 500 nm.
The molecule `Cc1ccccc1-c1ccccc1C` returned an emission maximum (in C1CCCCC1) of 318.98 nm.
